According to publication PMC10743905, “Design, Synthesis, and In Vitro and In Vivo Bioactivity Studies of Hydrazide–Hydrazones of 2,4-Dihydroxybenzoic Acid” (International Journal of Molecular Sciences, 2023):

Columns and labels:
Format in all cases: cell-based
[1] = tested on: Micrococcus luteus ATCC 10240; experiment: Broth microdilution MIC/MBC; conditions: for MBC: ATCC10240; for MIC: ATCC10240, read-out: MIC
Method in brief: (§1)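 Minimal inhibitory concentrations are determined by broth microdilution following EUCAST and CLSI. DMSO-dissolved compounds are serially halved from 1000 to 0.488 µg/ml final; inocula are 0.5 McFarland.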

[2] = tested on: Pseudomonas aeruginosa ATCC 9027; experiment: Broth microdilution MIC/MBC; conditions: ATCC9027
Method in brief: as §1

[3] = tested on: Proteus mirabilis ATCC 12453; experiment: Broth microdilution MIC/MBC; conditions: ATCC12453
Method in brief: as §1

[4] = tested on: Salmonella typhimurium ATCC 14028; experiment: Broth microdilution MIC/MBC; conditions: Salmonella enterica
Method in brief: as §1

[5] = tested on: Staphylococcus aureus ATCC 43300; experiment: Broth microdilution MIC/MBC; conditions: Staphylococcus aureus ATCC 43300 (MRSA)
Method in brief: as §1

[6] = tested on: Klebsiella pneumoniae ATCC 13883; experiment: Broth microdilution MIC/MBC; conditions: ATCC13883
Method in brief: as §1

[7] = tested on: Escherichia coli ATCC 25922; experiment: Broth microdilution MIC/MBC; conditions: ATCC25922
Method in brief: as §1

[8] = tested on: Enterococcus faecalis ATCC 29212; experiment: Broth microdilution MIC/MBC; conditions: for MBC: ATCC29212, read-out: MBC; for MIC: ATCC29212, read-out: MIC
Method in brief: as §1

[9] = tested on: Bacillus cereus ATCC 10876; experiment: Broth microdilution MIC/MBC; conditions: for MBC: ATCC10876; for MIC: ATCC10876, read-out: MIC
Method in brief: as §1

[10] = tested on: Bordetella bronchiseptica ATCC 4617; experiment: Broth microdilution MIC/MBC; conditions: ATCC4617
Method in brief: as §1

[11] = tested on: Candida albicans ATCC 2091; experiment: Broth microdilution MIC/MFC; conditions: for MFC: ATCC2091, read-out: MFC; for MIC: ATCC2091, read-out: MIC
Method in brief: as §1

[12] = tested on: Candida parapsilosis ATCC 22019; experiment: Broth microdilution MIC/MFC; conditions: for MFC / MIC: Lodderomyces parapsilosis; for MFC: ATCC22019, read-out: MFC; for MIC: ATCC22019, read-out: MIC
Method in brief: as §1

[13] = tested on: Candida glabrata ATCC 90030; experiment: Broth microdilution MIC/MFC; conditions: Nakaseomyces glabratus, ATCC90030, read-out: MIC
Method in brief: as §1

[14] = tested on: Candida krusei ATCC 14243; experiment: Broth microdilution MIC/MFC; conditions: for MFC / MIC: Pichia kudriavzevii; for MFC: ATCC14243, read-out: MFC; for MIC: ATCC14243, read-out: MIC
Method in brief: as §1

[15] = tested on: Candida albicans ATCC 10231; experiment: Broth microdilution MIC/MFC; conditions: for MFC: ATCC10231, read-out: MFC; for MIC: ATCC10231, read-out: MIC
Method in brief: as §1

[16] = tested on: Bacillus subtilis ATCC 6633; experiment: Broth microdilution MIC/MBC; conditions: for MBC: ATCC6633; for MIC: ATCC6633, read-out: MIC
Method in brief: as §1

O=C(N/N=C/c1ccc([N+](=O)[O-])cc1)c1ccc(O)cc1O [Compound 21, 2,4-dihydroxy-N-[(4-nitrophenyl)methylidene]benzohydrazide]
> 2: MBC/MIC [5] | MBC/MIC [9] | MFC/MIC [12] | MFC/MIC [14] | MFC/MIC [15] | MBC/MIC [16]
> 1: MBC/MIC [1] | MFC/MIC [11]
> 4: MBC/MIC [8]
500 µg/mL: MIC [5] | MIC [8] | MIC [9] | MIC [12] | MIC [14] | MIC [15] | MIC [16]
1000 µg/mL: MIC [1] | MIC [11]
> 1000 µg/mL: MBC [1] | MIC [2] | MIC [3] | MIC [4] | MBC [5] | MIC [6] | MIC [7] | MBC [8] | MBC [9] | MIC [10] | MFC [11] | MFC [12] | MIC [13] | MFC [14] | MFC [15] | MBC [16]

O=C(N/N=C/c1ccccc1Cl)c1ccc(O)cc1O [Compound 22, N-[(2-chlorophenyl)methylidene]-2,4-dihydroxybenzohydrazide]
1000 µg/mL: MIC [11] | MIC [12] | MIC [14] | MIC [15]
> 1: MFC/MIC [11] | MFC/MIC [12] | MFC/MIC [14] | MFC/MIC [15]
> 1000 µg/mL: MIC [1] | MIC [2] | MIC [3] | MIC [4] | MIC [5] | MIC [6] | MIC [7] | MIC [8] | MIC [9] | MIC [10] | MFC [11] | MFC [12] | MIC [13] | MFC [14] | MFC [15] | MIC [16]

O=C(N/N=C/c1ccccc1Br)c1ccc(O)cc1O [Compound 23, N-[(2-bromophenyl)methylidene]-2,4-dihydroxybenzohydrazide]
> 1000 µg/mL: MIC [1] | MIC [2] | MIC [3] | MIC [4] | MIC [5] | MIC [6] | MIC [7] | MIC [8] | MIC [9] | MIC [10] | MFC [11] | MFC [12] | MIC [13] | MIC [14] | MFC [15] | MIC [16]
1000 µg/mL: MIC [11] | MIC [12] | MIC [15]
> 1: MFC/MIC [11] | MFC/MIC [12] | MFC/MIC [15]

O=C(N/N=C/c1ccccc1F)c1ccc(O)cc1O [Compound 24, N-[(2-fluorophenyl)methylidene]-2,4-dihydroxybenzohydrazide]
> 2: MBC/MIC [16]
1000 µg/mL: MIC [1] | MIC [8] | MIC [9] | MIC [11] | MIC [12] | MIC [14] | MIC [15]
> 1000 µg/mL: MBC [1] | MIC [2] | MIC [3] | MIC [4] | MIC [5] | MIC [6] | MIC [7] | MBC [8] | MBC [9] | MIC [10] | MFC [11] | MFC [12] | MIC [13] | MFC [14] | MFC [15] | MBC [16]
> 1: MBC/MIC [1] | MBC/MIC [8] | MBC/MIC [9] | MFC/MIC [11] | MFC/MIC [12] | MFC/MIC [14] | MFC/MIC [15]
500 µg/mL: MIC [16]
